Source: publication PMC9553116 (The Journal of Pharmacology and Experimental Therapeutics, 2022)

Biological target: T1, MFN2 (FRET-MFN2) (Homo sapiens, UniProt O95140)
T1 sequence (O95140 1-757): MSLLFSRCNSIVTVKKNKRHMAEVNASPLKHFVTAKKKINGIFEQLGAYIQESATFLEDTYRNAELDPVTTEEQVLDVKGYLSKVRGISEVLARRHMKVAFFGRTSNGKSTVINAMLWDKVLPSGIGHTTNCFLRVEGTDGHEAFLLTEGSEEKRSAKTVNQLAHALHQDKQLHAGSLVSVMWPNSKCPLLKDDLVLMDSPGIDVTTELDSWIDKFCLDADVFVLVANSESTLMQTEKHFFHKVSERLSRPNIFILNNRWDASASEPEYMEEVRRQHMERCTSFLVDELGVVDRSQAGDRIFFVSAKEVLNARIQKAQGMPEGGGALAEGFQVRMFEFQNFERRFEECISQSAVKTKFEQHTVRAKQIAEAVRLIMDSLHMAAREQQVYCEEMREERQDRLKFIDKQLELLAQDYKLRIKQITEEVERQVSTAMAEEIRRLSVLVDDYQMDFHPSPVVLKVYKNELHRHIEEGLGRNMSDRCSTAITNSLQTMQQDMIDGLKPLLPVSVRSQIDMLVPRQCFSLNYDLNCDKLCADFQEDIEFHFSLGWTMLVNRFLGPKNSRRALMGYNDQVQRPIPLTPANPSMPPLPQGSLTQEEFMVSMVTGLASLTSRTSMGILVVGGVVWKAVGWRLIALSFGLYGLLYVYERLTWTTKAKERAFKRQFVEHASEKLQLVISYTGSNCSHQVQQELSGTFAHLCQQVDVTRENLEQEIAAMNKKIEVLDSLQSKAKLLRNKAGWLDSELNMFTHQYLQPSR
Test: Cerulean/Venus FRET of MFN2 conformation, isolated mitochondria
Assay type: biochemical
Settings: 1 uM compound, 4 h, room temperature, pH 7.4; allosteric

`O=C(CCCCCc1ccccc1)N[C@H]1CC[C@H](O)CC1` [trans-MiM111, N-(trans-4-Hydroxycyclohexyl)-6-phenylhexanamide] was tested, and the FRET was “trans-MiM111 and CPR1-B promoted a relaxed WT MFN2 conformation”.
